The term IC50 denotes the concentration at which inhibition is half-maximal.

The assay can be described thus: Inhibition of RIP1 in human U937 cells assessed as prevention of TNFalpha/zVAD.fmk-induced necrotic cell death preincubated for 30 to 60 mins followed by TNF-alpha induction measured after overnight incubation by Cell Titer-Glo luminescence assay. For orientation: ATP-based viability assays read luminescence as a measure of living cells.
With `Nc1nccc2c(-c3ccc(NC(=O)Nc4cc(C(F)(F)F)ccc4Cl)cc3)cccc12`, the 50% inhibitory concentration (IC50) was more than 10000 nM. `Nc1ccc(-c2cnc3[nH]cc(-c4cccc(NC(=O)Nc5cc(C(F)(F)F)ccc5F)c4)c3c2)cc1`: the IC50 stood at 16 nM. Turning to `CC(=O)c1cccc(NC(=O)Nc2cccc(-c3c[nH]c4ncc(-c5ccccc5)cc34)c2)c1`, the IC50 came to 320 nM.

In the case of `O=C(Nc1cccc(-c2c[nH]c3ncc(-c4ccccc4)cc23)c1)NC1CCCC1`, the half-inhibitory concentration (IC50) stood at 7900 nM.

For the compound `NC(=O)c1cccc(-c2cnc3[nH]cc(-c4cccc(NC(=O)Nc5cc(C(F)(F)F)ccc5F)c4)c3c2)c1`, the IC50 worked out at 63 nM. In the case of `CCc1cccc(NC(=O)Nc2ccc(-c3coc4ncnc(N)c34)cc2)c1`, the concentration for half-maximal inhibition (IC50) came out at 250 nM.

For the compound `O=C(Nc1cccc(-c2c[nH]c3ncc(-c4ccccc4)cc23)c1)Nc1cccc([N+](=O)[O-])c1`, the half-maximal inhibitory concentration (IC50) was 320 nM. In the case of `O=C(Nc1cccc(-c2c[nH]c3ncc(-c4ccccc4)cc23)c1)Nc1cc(C(F)(F)F)ccc1F` it was 160 nM; in that of `Nc1nccc2c(-c3ccc(NC(=O)Nc4cccc(C(F)(F)F)c4)cc3)cccc12`, 630 nM; in that of `Nc1ncnc2occ(-c3ccc(NC(=O)Nc4cccc(C(F)(F)F)c4F)cc3)c12`, 10000 nM. In the case of `CC(C)(C)c1cc(NC(=O)Nc2ccc(-c3coc4ncnc(N)c34)cc2)no1` it was 200 nM; in that of `O=C(Nc1cccc(-c2c[nH]c3ncc(-c4cccnc4)cc23)c1)Nc1cc(C(F)(F)F)ccc1F`, 6.3 nM; in that of `Nc1nccc2c(-c3ccc(NC(=O)Nc4cc(C(F)(F)F)ccc4F)cc3)cccc12`, 630 nM. In the case of `CCS(=O)(=O)c1ccc(-c2cnc3[nH]cc(-c4cccc(NC(=O)Nc5cc(C(F)(F)F)ccc5F)c4)c3c2)cc1` it was 25 nM; in that of `Nc1ncnc2occ(-c3ccc(NC(=O)Nc4cccc(Cl)c4)cc3)c12`, 7900 nM.

As for `Nc1ncnc2occ(-c3ccc(NC(=O)Nc4cc(C(F)(F)F)cc(C(F)(F)F)c4)cc3)c12` [3-(4-{4-aminofuro[2,3-d]pyrimidin-5-yl}phenyl)-1-[3,5-bis(trifluoromethyl)phenyl]urea], the concentration for half-maximal inhibition (IC50) came out at 7900 nM. In the case of `Nc1ncnc2occ(-c3ccc(NC(=O)Nc4ccc(F)c(C(F)(F)F)c4)cc3)c12` it was 1300 nM; in that of `Nc1nccc2c(-c3ccc(NC(=O)Nc4ccc(F)c(C(F)(F)F)c4)cc3)cccc12`, 2500 nM. As to `O=C(Nc1ccccc1)Nc1cccc(-c2c[nH]c3ncc(-c4ccccc4)cc23)c1` [1-phenyl-3-(3-(5-phenyl-1H-pyrrolo[2,3-b]pyridin-3-yl)phenyl)urea], the IC50 was 600 nM. In the case of `Nc1ncnc2occ(-c3ccc(NC(=O)Nc4cccc(C(F)(F)F)c4)cc3)c12` [3-(4-{4-aminofuro[2,3-d]pyrimidin-5-yl}phenyl)-1-[3-(trifluoromethyl)phenyl]urea] it was 1000 nM; in that of `Nc1nccc2c(-c3ccc(NC(=O)Nc4ccc(Cl)c(C(F)(F)F)c4)cc3)cccc12`, 2000 nM. Next, `Nc1ncnc2occ(-c3ccc(NC(=O)Nc4ccc5ccccc5c4)cc3)c12` [3-(4-{4-aminofuro[2,3-d]pyrimidin-5-yl}phenyl)-1-naphthalen-2-ylurea]: 790 nM; `O=C(Nc1cccc(-c2c[nH]c3ncc(-c4ccccc4)cc23)c1)Nc1cccc(C(F)(F)F)c1`: 79 nM; `COc1cccc(NC(=O)Nc2cccc(-c3c[nH]c4ncc(-c5ccccc5)cc34)c2)c1`: 400 nM.

As to `Nc1ncnc2occ(-c3ccc(NC(=O)Nc4ccc(Cl)c(C(F)(F)F)c4)cc3)c12`, the IC50 came out at 1300 nM.

`Nc1nccc2c(-c3ccc(NC(=O)Nc4cc(F)cc(C(F)(F)F)c4)cc3)cccc12`: the IC50 amounted to 2500 nM.

Turning to `Nc1ncnc2occ(-c3ccc(NC(=O)Nc4cc(F)cc(C(F)(F)F)c4)cc3)c12`, the half-inhibitory concentration (IC50) worked out at 5000 nM. For `O=C(Nc1cccc(-c2c[nH]c3ncc(-c4cn[nH]c4)cc23)c1)Nc1cc(C(F)(F)F)ccc1F`, the IC50 is 63 nM. Next, `CS(=O)(=O)c1cccc(-c2cnc3[nH]cc(-c4cccc(NC(=O)Nc5cc(C(F)(F)F)ccc5F)c4)c3c2)c1`: 50 nM.

The values are drawn from BindingDB's records for doi:10.1021/ml400382p (Glaxosmithkline, 2013).
